{"source": "paper PMC9253268", "about": "(Frontiers in Immunology, 2022)", "key": {"[1]": {"assay": "Chemical profiling of BHGZD in sera (UFLC-Q-TOF-MS/MS)", "conditions": "30 min after the treatment of BHGZD", "from_the_text": "(§1) A rapid, sensitive, and reliable method by the UFLC-Q-TOF-MS/MS system was used to identify the chemical profiling of BHGZD as described in Supplementary Materials Section 9 ([30]). The reference standards of these compounds ( Supplementary Table S2 ) were purchased from Chengdu Must Bio-technology Co., Ltd. (Chengdu, China), the National Institute for the Control of Pharmaceutical and Biological Products (Beijing, China), and Chengdu DeSiTe Biological Technology Co., Ltd. (Chengdu, China).\n(§2) Sciex, Forster City, USA) with electrospray ionization source (ESI). Kinetex C18 column\n(§3) (Phenomenex, 3.0×150 mm, 2.6μm, 100Å) was used to perform chromatographic\n(§4) separation with a flow rate of 0.3mL/min at 40℃. A linear gradient program with mobile\n(§5) phase system including solvent A (deionized water with 0.1% formic acid, v/v) and solvent\n(§6) B (methanol) was described in details: solvent B (5~95%) for 40min, isocratic eluted at\n(§7) 95% B for 5min，95%~5% B (40-45min), followed a post-run of 2min to equilibrate the\n(§8) The instrumental settings of Q-TOF-MS/MS were described in the previous study\n(§9) (9).Samples were analyzed in both positive and negative ionization modes with scanning\n(§10) mas-to-charge (m/z) range from 50 to 1500. Data was collected in information-dependent\n(§11) acquisition (IDA) mode and analyzed by PeakView® 2.2 software (AB Sciex, Foster City,\n(§12) Chemical identifications were based on reference standards and mass spectral\n(§13) library (Natural Products HR-MS/MS Spectral Library, Version 1.0, AB Sciex, Forster City,"}, "[2]": {"assay": "In vivo pharmacokinetic analysis of MG and CA after oral BHGZD (UHPLC-QTRAP-MS/MS)", "conditions": "rat plasma after oral BHGZD 21.4 g/kg each day, n = 3", "method": "The pharmacokinetic parameters were calculated by Drug and Statistic software (Shanghai, China). Detailed information on the collection of blood samples and UHPLC-QTRAP-MS/MS conditions is provided in Supplementary Materials Section 13 . […]\nSection 13 Pharmacokinetic analysis […]\nadministration of BHGZD, ultra-fast liquid chromatography coupled with triple quadrupole-linear ion trap composite mass spectrometry (UHPLC-QTRAP-MS/MS) system was […]\nBioanalytical Method Validation issued by Chinese Pharmacopoeia Commission in 2020.\nThe pharmacokinetic parameters were calculated by Drug and Statistic software […]\n1) Collection of blood samples\nMale Lewis rats (n=6, 6-8 weeks-old, 200±20g in weight) were purchased from Beijing Vital River Laboratory Animal Technology Co., Ltd. (SCCK 2016-0006, Beijing, China; n=3 per group, including normal control group and normal control+BHGZD treatment group).\nDiet was prohibited for 12h before the experiment but water was freely available. Blood samples (~0.25mL) were collected from the retinal venous plexus into heparinized 1.5mL polythene tubes before administration and 0, 0.25, 0.5, 1, 2, 3, 4, 6, 8,12 and 24h after administration of BHGZD. The plasma samples were obtained after centrifuging at 12000rpm for 15min, and stored at -20℃ prior to analysis.\n2) UHPLC-QTRAP-MS/MS conditions\nQuantification analysis were performed on an ultra-high-performance liquid chromatography (Shimadzu Corp., Japan) tandem ion trap quadrupole QTRAP 6500 plus mass spectrometry (AB Sciex, USA). Chromatographic separation was conducted using a Poroshell 120 EC-C18 column (3.0×50mm, 2.7μm) at 40℃. The mobile phase was consisted of 0.1% formic acid–water (v/v, A) and methanol (B) and elution program were:\nMass spectrometry detector were conducted in negative mode and the detecting parameters were set as follows: curtain gas, 35 psi; collision gas, medium; ionspray voltage, 4500 V; temperature, 550℃; ion source gas 1 and 2, 55psi. Quantitative ion pairs were optimized for MG: m/z 421.2-301.1 (declustering potential: 63V, CE: 30eV) and for […]\nData acquisition and analysis"}, "recombinant AKT1 protein": {"target": "T1, recombinant AKT1 protein (Homo sapiens, UniProt P31749)", "T1 construct": "His tag; purchased Abcam ab116412", "T1 sequence (P31749 whole entry)": "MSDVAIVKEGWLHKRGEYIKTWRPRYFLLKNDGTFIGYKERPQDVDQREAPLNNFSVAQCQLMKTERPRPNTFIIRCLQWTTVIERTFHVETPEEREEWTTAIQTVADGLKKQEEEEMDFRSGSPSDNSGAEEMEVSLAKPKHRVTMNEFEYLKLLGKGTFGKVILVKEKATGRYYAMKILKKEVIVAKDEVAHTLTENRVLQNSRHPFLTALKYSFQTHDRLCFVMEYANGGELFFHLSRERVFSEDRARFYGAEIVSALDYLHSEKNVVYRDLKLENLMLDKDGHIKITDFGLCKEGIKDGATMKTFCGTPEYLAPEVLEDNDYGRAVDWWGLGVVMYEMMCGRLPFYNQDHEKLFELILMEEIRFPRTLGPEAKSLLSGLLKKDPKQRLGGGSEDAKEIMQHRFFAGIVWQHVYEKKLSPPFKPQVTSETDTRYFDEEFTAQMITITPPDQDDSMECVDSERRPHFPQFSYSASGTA", "assay": "Surface plasmon resonance (SPR) binding assay", "conditions": "Biacore 8K, read-out: mean KD, MG–AKT", "method": "To confirm the binding affinity of recombinant AKT1 protein and MG, SPR assay was performed with Biacore 8K (Biacore, Cytiva), and the K D value was calculated using the Biacore 8K evaluation software 2.0 (GE Healthcare). Detailed information on SPR assay is provided in Supplementary Materials Section 11 . […]\ncompound was greater than 9.0×106cm/s and 40% which indicated drug-like […]\nSection 11 Surface plasmon resonance (SPR) assay\nSPR binding assays were analyzed with Biacore 8K (Biacore, Cytiva). Materials and reagents used in SPR assays were purchased from Cytiva. The histidine-tagged AKT1 (Cat No. ab116412, Abcam, Cambridge, UK) was immobilized on the surface of Carboxymethylated (CM5) sensor chip through the standard amino coupling method. The carboxyl groups of the sensor surface were activated by injection of a solution containing 0.2M N-ethyl-N9-(3-dimethylaminopropyl) carbodiimide (EDC) and 0.05M N-hydroxysuccinimide (NHS), AKT1 in 10mM sodium acetate buffer was then injected at a flow rate of 10μL/min to couple to the sensor surface, and the remaining active sites in the […]\nSensor chips were primed twice with degassed physiological running buffer (PBS buffer). A reference flow cell was activated and blocked in the absence of AKT1. […]"}, "RAW264.7 cells [3]": {"tested_on": "RAW264.7 cells", "assay": "Cell viability, CCK-8 assay", "assay_type": "cell-based, mouse", "conditions": "0.21–6.74 ng/ml MG or 0.02–0.52 ng/ml CA treatment alone", "method": "Cell viability was analyzed with the cell counting kit-8 (CCK-8) assay kit (Beyotime Biotechnology, Shanghai, China) as described in Supplementary Materials Section 16 .\nSection 16 Cell proliferation assay\nCell viability was analyzed with Cell Counting Kit-8 (CCK-8) assay kit (Beyotime Biotechnology, China). Raw264.7 cells were seeded into 96-well plate, and after […]\nsolution was added to each well. The absorbance was measured after 4h of incubation at […]\nSection 17 Flow cytometry\nTo identify and quantify of pyroptosis population of Raw264.7 cells, FITC Apoptosis Detection kit I staining with both the Annexin V-fluorescein isothiocyanate and propidium iodide (PI, BD Biosciences, San Jose, CA, USA) was used in accordance with manufacturer's guidelines. Briefly, Raw264.7 cells was washed twice with cold PBS and then resuspended in 1×binding buffer at a concentration of 1x10^6 cells/mL. Then, 100µL of the solution (1x10^5 cells) was transferred to a 5 mL culture tube. Subsequently, 5µL of FITC Annexin V and 5µL PI were added into cultured tube, and vortexed and incubated for 15 min at room temperature in the dark. Finally, 400µL 1×binding buffer was added into each tube, and analyzed by flow cytometry (ACEA Bioscience, San Diego, CA, USA) and NovoExpress 1.4.1 software (ACEA Bioscience, San Diego, CA, USA) within 1h."}, "RAW264.7 cells [4]": {"tested_on": "RAW264.7 cells", "assay": "LPS/ATP-induced pyroptosis in RAW264.7 cells (flow cytometry, FAM-FLICA, immunofluorescence, Western blotting, ELISA)", "assay_type": "cell-based, mouse", "from_the_text": "(§14) Mouse macrophage cell line (RAW264.7 cells, Bio-Swamp, Wuhan, China) and fibroblast-like synoviocytes in patients with RA (MH7A cells, Riken cell bank, Ibaraki, Japan) at passage numbers four to eight were used in the current experiment validations.\n(§15) The concentration of DMSO was less than 1‰ of the solution for the in vitro experiment.\nFluorescence images were visualized and photographed with a confocal microscope (Zeiss LSM 880, Carl Zeiss, Jena, Germany).\nThe images were visualized and photographed with a confocal microscope (Zeiss LSM 880, Carl Zeiss, Jena, Germany) or an inverted fluorescence microscope (MF53, MSHOT, Guangzhou, China).\n(§16) To evaluate the therapeutic effects of two BACs from BHGZD on the regulation of the “immune-inflammation” system, the levels of cytokines, proteins, and LDH release in RAW264.7 and MH7A cellular supernatant, as well as the sera of AIA-M rats were determined using enzyme-linked immunosorbent assay (ELISA) to assess the integrity of membranes in accordance with the manufacturer’s guidelines.\nRaw264.7 cells were maintained in DMEM (Hyclone, Logan, UT, USA), supplemented\n100μg/mL streptomycin and 2mM L-glutamine (TBD, Tianjin, China) in a humidified 5%\nCO2 incubator at the temperature of 37℃. The Raw264.7 cells at passage numbers four\nto eight were used in the current experiment validations.\nMH7A cells were cultured in sterile synoviocyte growth medium (Cell Applicatio ns, Inc.,\nL-glutamine (TBD, Tianjin, China) in a humidified 5% CO2 incubator at the temperature of\n37℃. MH7A at passage numbers four to eight were used in the current experiment\n(§17) To induce a conventional NLRP3 inflammasome activation, Raw264.7cells was induced\n(§18) with 0.2μg/mL lipopolysaccharide [LPS, Escherichia coli (O111:B4), Sigma-Aldrich, St\n(§19) Louis, MO, USA] for 4h, followed with a 3mM ATP adenosine triphosphate (ATP disodium\n(§20) salt hydrate, Sigma-Aldrich, St Louis, MO, USA) for 1h of incubation at 37℃ with 5% CO2\n(§21) For MH7A cells LPS/ATP-induced pyrotosis, MH7A cells were induced with 1μg/mL LPS\n(§22) for 6h, followed with a 3mM ATP for 1h of incubation at 37℃ with 5% CO2 (11)."}, "MH7A cells": {"tested_on": "MH7A cells", "assay": "LPS/ATP-induced pyroptosis in MH7A cells (TUNEL, immunofluorescence, Western blotting, ELISA)", "assay_type": "cell-based, human", "from_the_text": "as §14\nThe conventional NLRP3 inflammasome activation cellular model was induced by lipopolysaccharide [LPS, Escherichia coli (O111:B4), Sigma-Aldrich, St Louis, MO, USA] and adenosine triphosphate (ATP disodium salt hydrate, Sigma-Aldrich, St Louis, MO, USA) as in our previous study ([22]) ( Supplementary Materials Section 15 ).\nas §15\nThe occurrence of pyroptosis in both MH7A cells and synovium tissues in AIA-M rats was determined by in situ TUNEL staining (TUNEL Andy Fluor™ 594 Apoptosis Detection Kit, ABP Biosciences, Wuhan, China) in accordance with the manufacturer’s protocol. Fluorescence images were visualized and photographed with inverted fluorescence microscopes (MF53, MSHOT, Guangzhou, China; Olympus, BX51, Tokyo, Japan).\nDouble fluorescence staining was performed as described previously ([22]) ( Supplementary Materials Section 20 ). The images were visualized and photographed with a confocal microscope (Zeiss LSM 880, Carl Zeiss, Jena, Germany) or an inverted fluorescence microscope (MF53, MSHOT, Guangzhou, China).\nTo evaluate the regulation of BHGZD on the candidate targets in arthritic tissue samples, as well as RAW264.7 and MH7A cells, Western blotting analysis was carried out following the protocol as in our previous studies ([21], [24], [29]). TLR4, phospho-PI3K (p-PI3K), PI3K, p-AKT, p-NFκB-p65, NFκB-p65, NLRP3, ASC, caspase-1, the N-terminal domain of GSDMD (GSDMD-NT), and IL-1β antibodies were used as shown in Supplementary Table S3 . GAPDH (GAPDH Mouse monoclonal antibody, Abcam, Cambridge, UK) and β-actin (Anti-beta-Actin/β-Actin Antibody, Boster Biological Technology, California, USA) were used as loading controls for arthritic tissue samples and cultured cells, respectively.\nas §16, §17, §18, §19, §20, §21, §22"}, "[5]": {"conditions": "rat, in vivo", "from_the_text": "as §1, §2, §3, §4, §5, §6, §7, §8, §9, §10, §11, §12, §13"}, "[6]": {"conditions": "LPS/ATP-induced RAW264.7 cells, all p < 0.05"}, "[7]": {"conditions": "LPS/ATP-induced, BHGZD 28.54 μg/ml, MG 1.69 ng/ml, CA 0.13 ng/ml, 24 h"}, "[8]": {"conditions": "LPS/ATP-induced MH7A cells, all p < 0.05"}}, "note": "Read-outs that look alike come from different tables or passages of the source.", "data": [{"molecule": "O=C(/C=C/c1ccc(O[C@@H]2O[C@H](CO)[C@@H](O)[C@H](O)[C@H]2O)cc1)c1ccc(O)cc1O", "note": "[isoliquiritin]", "values": [{"measurement": "quantitative detection in sera after the treatment of BHGZD", "setting": "[1]", "result": "detected"}]}, {"molecule": "O=c1c2cc(O[C@@H]3O[C@H](CO)[C@@H](O)[C@H](O)[C@H]3O)c(O)cc2oc2cc(O)c([C@@H]3O[C@H](CO)[C@@H](O)[C@H](O)[C@H]3O)c(O)c12", "note": "[neomangiferin]", "values": [{"measurement": "quantitative detection in sera after the treatment of BHGZD", "setting": "[1]", "result": "detected"}]}, {"molecule": "CC1(C)[C@@H](O[C@H]2O[C@H](C(=O)O)[C@@H](O)[C@H](O)[C@H]2O[C@@H]2O[C@H](C(=O)O)[C@@H](O)[C@H](O)[C@H]2O)CC[C@]2(C)[C@H]3C(=O)C=C4[C@@H]5C[C@@](C)(C(=O)O)CC[C@]5(C)CC[C@@]4(C)[C@]3(C)CC[C@@H]12", "note": "[glycyrrhizic acid]", "values": [{"measurement": "quantitative detection in sera after the treatment of BHGZD", "setting": "[1]", "result": "detected"}]}, {"molecule": "anemarrhensaponin I", "values": [{"measurement": "quantitative detection in sera after the treatment of BHGZD", "setting": "[1]", "result": "detected"}]}, {"molecule": "O=c1cc(-c2ccc(O)cc2)oc2cc(O)c([C@@H]3O[C@H](CO)[C@@H](O)[C@H](O)[C@H]3O)c(O)c12", "note": "[isovitexin]", "values": [{"measurement": "quantitative detection in sera after the treatment of BHGZD", "setting": "[1]", "result": "detected"}]}, {"molecule": "O=C1C[C@@H](c2ccc(O)cc2)Oc2cc(O)ccc21", "note": "[liquiritigenin]", "values": [{"measurement": "quantitative detection in sera after the treatment of BHGZD", "setting": "[1]", "result": "detected"}]}, {"molecule": "C[C@@H](CC[C@@]1(O)O[C@H]2C[C@H]3[C@@H]4CC[C@@H]5C[C@@H](O[C@@H]6O[C@H](CO)[C@H](O)[C@H](O)[C@H]6O[C@@H]6O[C@H](CO)[C@@H](O)[C@H](O)[C@H]6O)CC[C@]5(C)[C@H]4CC[C@]3(C)[C@H]2[C@@H]1C)CO[C@@H]1O[C@H](CO)[C@@H](O)[C@H](O)[C@H]1O", "note": "[timosaponin B II]", "values": [{"measurement": "quantitative detection in sera after the treatment of BHGZD", "setting": "[1]", "result": "detected"}]}, {"molecule": "O=c1c2cc(O)c(O)cc2oc2cc(O)c([C@@H]3O[C@H](CO)[C@@H](O)[C@H](O)[C@H]3O)c(O)c12", "note": "[MG, mangiferin]", "values": [{"measurement": "Cmax", "setting": "[2]; male, Lewis, rat, plasma, po, 21.4 g/kg, non-compartment model, read-out: Cmax", "result": 132, "unit": "ng/mL"}, {"measurement": "AUC(0-t)", "setting": "[2]; male, Lewis, 0-24 h", "result": "578 ± 183", "unit": "ng·h/mL"}, {"measurement": "half-life", "setting": "[2]; male, Lewis, apparent elimination half-life, read-out: t1/2z (converted)", "result": "1.26 ± 0.23", "unit": "h"}, {"measurement": "AUC(0-inf)", "setting": "[2]; male, Lewis", "result": "579 ± 182", "unit": "ng·h/mL"}, {"measurement": "MRT last", "setting": "[2]; male, Lewis, read-out: MRT(0-t)", "result": "4.23 ± 0.3", "unit": "h"}, {"measurement": "MRT inf", "setting": "[2]; male, Lewis, read-out: MRT(0-∞)", "result": "4.25 ± 0.28", "unit": "h"}, {"measurement": "Tmax", "setting": "[2]; male, Lewis, non-compartment model", "result": 4, "unit": "h"}, {"measurement": "Cmax", "setting": "[2]; non-compartment model, listed as Mangiferin (MG)", "result": "132.07 ± 44.67", "unit": "ng/mL"}, {"measurement": "Kd", "setting": "recombinant AKT1 protein", "result": 38.3, "unit": "µM"}, {"measurement": "quantitative detection in sera after the treatment of BHGZD", "setting": "[1]", "result": "detected"}, {"measurement": "cell viability (CCK8)", "setting": "RAW264.7 cells [3]", "result": "no cell toxicity"}, {"measurement": "GSDMD-NT", "setting": "RAW264.7 cells [4]; LPS/ATP-induced RAW264.7 cells, Western blotting", "result": "decreased"}, {"measurement": "expression levels of NLRP3, ASC, and caspase-1", "setting": "RAW264.7 cells [4]; [6]", "result": "reduced"}, {"measurement": "levels of IL-1β, IL-18, and LDH release in the supernatant", "setting": "RAW264.7 cells [4]; [6]", "result": "reduced"}, {"measurement": "PI positive cell rate", "setting": "RAW264.7 cells [4]; LPS/ATP-induced, 1.69 ng/ml MG, 0.13 ng/ml CA, 24 h, inferior to BHGZD, all p < 0.05", "result": "prominently reduced"}, {"measurement": "number of FLICA-positive RAW264.7 cells", "setting": "RAW264.7 cells [4]; [7]", "result": "reduced"}, {"measurement": "inhibition on cell pyroptosis induced by LPS/ATP, alone versus combination", "setting": "RAW264.7 cells [4]; RAW264.7 and MH7A cells, all p < 0.05", "result": "weaker than that in the two-BAC combination treatment group"}, {"measurement": "GSDMD-NT", "setting": "MH7A cells; LPS/ATP-induced MH7A cells, Western blotting", "result": "decreased"}, {"measurement": "expression levels of NLRP3, ASC, and caspase-1", "setting": "MH7A cells; [8]", "result": "reduced"}, {"measurement": "levels of IL-1β, IL-18, and LDH release in the supernatant", "setting": "MH7A cells; [8]", "result": "reduced"}, {"measurement": "number of TUNEL-positive MH7A cells", "setting": "MH7A cells; [7]", "result": "reduced"}]}, {"molecule": "O=c1cc(-c2ccc(O)cc2)oc2c([C@@H]3O[C@H](CO)[C@@H](O)[C@H](O)[C@H]3O)c(O)c([C@@H]3OC[C@H](O)[C@H](O)[C@H]3O)c(O)c12", "note": "[isoschaftoside]", "values": [{"measurement": "quantitative detection in sera after the treatment of BHGZD", "setting": "[1]", "result": "detected"}]}, {"molecule": "COc1cc2c(=O)c3c(O)c([C@@H]4O[C@H](CO)[C@@H](O)[C@H](O)[C@H]4O)c(O)cc3oc2cc1O", "note": "[7-O-methyl mangiferin]", "values": [{"measurement": "quantitative detection in sera after the treatment of BHGZD", "setting": "[5]", "result": "detected"}]}, {"molecule": "COc1ccc(-c2coc3cc(O)ccc3c2=O)cc1", "note": "[formononetin]", "values": [{"measurement": "quantitative detection in sera after the treatment of BHGZD", "setting": "[1]", "result": "detected"}]}, {"molecule": "O=c1cc(-c2ccc(O)cc2)oc2c([C@@H]3O[C@H](CO)[C@@H](O)[C@H](O)[C@H]3O)c(O)cc(O)c12", "note": "[vitexin]", "values": [{"measurement": "quantitative detection in sera after the treatment of BHGZD", "setting": "[1]", "result": "detected"}]}]}
